The source of these data is paper PMC9611727, “Optimization of a Novel Mandelamide-Derived Pyrrolopyrimidine Series of PERK Inhibitors” (Pharmaceutics, 2022).

Each structure is given as a SMILES string. Bounds are passed on as bounds.

In general, IC50 refers to the concentration at which inhibition is half-maximal.

One test relates to MOLM-13 (FLT3-ITD). Kind of test: Cell viability assay, MOLM-13. The class given is cell-based. Particulars: Homo sapiens.
A further test concerns Kasumi-1 (FLT3wt). Kind of test: Cell viability assay, Kasumi-1. Particulars: Homo sapiens. The test is classed as cell-based.
The next test concerns p-eIF2α. Description: Cellular PERK inhibition: p-eIF2a TR-FRET in tunicamycin-treated HEK293-EGFP-eIF2a cells. The settings on record: Homo sapiens; HEK293 cells, tunicamycin-induced ER stress; read-out: p-eIF2α IC50. The class given is cell-based. The method, then: Methods used to evaluate in vitro cellular PERK inhibition are described and published elsewhere. In brief, stableHEK293 cells were created using lentiviral particles harboring a GFP-eIF2a expression vector. Transfectants were selected by puromycin and enriched using fluorescent cell sorting based on GFP expression. HEK293-EGFP-eIF2a cells were plated at 5000 cells/well in 384-well assay plates and incubated overnight. The following day, pyrrolopyrimidine analogs were added to wells using an Echo acoustic dispenser and incubated for 30 min. ER stress was induced by the addition of tunicamycin to the wells at […] for 2 h. Cells were lysed and peIF2a was evaluated using a TR-FRET system, as described above.
(§1) The PERK activity of analog I was evaluated using cell-free biochemical assays. In these assays, PERK phosphorylation of eIF2a was assessed using a FRET-based labelled protein assay. Compounds were then evaluated for cellular activity by quantifying inhibition of eIF2a phosphorylation in HEK293 cells treated with the ER inducer tunicamycin [7].
Background: Time-resolved FRET reads energy transfer from a long-lived donor to a nearby acceptor.

A further test addresses T1, PERK (Homo sapiens, UniProt Q9NZJ5).
T1 sequence (Q9NZJ5 30-1116): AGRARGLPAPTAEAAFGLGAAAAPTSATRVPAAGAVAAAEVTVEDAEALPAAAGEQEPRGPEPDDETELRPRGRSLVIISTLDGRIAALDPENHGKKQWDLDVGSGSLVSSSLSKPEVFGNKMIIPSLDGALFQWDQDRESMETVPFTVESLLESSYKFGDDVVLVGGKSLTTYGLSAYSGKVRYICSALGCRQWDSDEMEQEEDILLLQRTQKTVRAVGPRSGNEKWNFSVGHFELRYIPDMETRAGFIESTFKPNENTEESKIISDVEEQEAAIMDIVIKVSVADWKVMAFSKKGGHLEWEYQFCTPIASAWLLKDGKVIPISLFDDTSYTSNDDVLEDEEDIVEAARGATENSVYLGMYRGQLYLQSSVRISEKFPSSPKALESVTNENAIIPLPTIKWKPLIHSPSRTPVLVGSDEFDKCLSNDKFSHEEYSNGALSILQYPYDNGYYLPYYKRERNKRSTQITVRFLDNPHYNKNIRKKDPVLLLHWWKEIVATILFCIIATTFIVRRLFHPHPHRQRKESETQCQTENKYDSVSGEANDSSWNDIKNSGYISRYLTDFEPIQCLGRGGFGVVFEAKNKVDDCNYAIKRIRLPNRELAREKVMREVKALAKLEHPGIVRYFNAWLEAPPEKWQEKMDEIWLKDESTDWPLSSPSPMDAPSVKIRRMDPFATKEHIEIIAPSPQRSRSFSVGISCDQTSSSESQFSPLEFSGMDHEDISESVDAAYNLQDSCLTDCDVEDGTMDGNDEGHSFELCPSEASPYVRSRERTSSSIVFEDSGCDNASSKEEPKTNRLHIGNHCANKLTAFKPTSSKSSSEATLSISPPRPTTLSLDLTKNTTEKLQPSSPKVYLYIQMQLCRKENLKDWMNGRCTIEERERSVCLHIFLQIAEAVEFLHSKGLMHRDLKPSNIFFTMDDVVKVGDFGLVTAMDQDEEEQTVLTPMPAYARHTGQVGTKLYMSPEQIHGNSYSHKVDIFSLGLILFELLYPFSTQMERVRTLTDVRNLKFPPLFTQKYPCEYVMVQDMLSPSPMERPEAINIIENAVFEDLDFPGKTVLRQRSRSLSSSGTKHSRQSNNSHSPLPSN
Kind of test: PERK biochemical LanthaScreen TR-FRET assay (GFP-eIF2a phosphorylation). The settings on record: cell-free TR-FRET, GFP-eIF2a substrate; read-out: PERK IC50. The method, then:
Methods used to evaluate biochemical PERK activity are described and published elsewhere. In brief, biochemical PERK activity is evaluated using a LanthaScreenTM ([…]) TR-FRET assay to detect phosphorylation of a GFP-tagged eIF2a substrate (ThermoFisher). Excitation at […] of a terbium chelate donor fluorophore in an eIF2a antibody results in energy transfer to GFP acceptor fluorophore upon eIF2a phosphorylation by PERK. Reaction buffer was composed of 50 mM HEPES (pH 7.4), 10 mM MgCl2, 1 mM EGTA and 0.01% (v/v) BrijTM-35. Reactions were initiated by the addition of substrate and ATP, followed by incubation for 1 h at RT prior to addition of EDTA and the anti-peIF2a antibody. FRET was measured by an EnVision Plate Reader (PerkinElmer). Data were plotted as percent inhibition along a 10-point 3-fold dilution series of inhibitors. IC50 values were calculated using 4-parameter logistical fitting in XLFit.
as §1

With `CCc1nc(C(N)=O)c(Nc2ccc(N3CCC(N4CCN(C)CC4)CC3)c(OC)c2)nc1NC1CCOCC1` [Gilteritinib], the figures for the IC50 in the test with MOLM-13 (FLT3-ITD) and in the test on Kasumi-1 (FLT3wt) were 14 nM and 478 nM, respectively.
As to `Cc1nc(N)c2c(-c3ccc(NC(=O)[C@H](O)c4cccc(F)c4)cc3Cl)cn(C)c2n1` [Compound 53], the IC50 is 56 nM in the test on p-eIF2α and 17 nM on PERK.
Regarding `Cc1nc(N)c2c(-c3cnc(NC(=O)[C@H](O)c4cccc(C(F)(F)F)c4)cc3C)cn(C)c2n1` [Compound 75], the results for the IC50 in the test with p-eIF2α and on PERK were 95 nM and 6.8 nM, respectively.
As for `CCc1cc(NC(=O)[C@H](O)c2cccc(F)c2)ccc1-c1cn(C)c2nc(C)nc(N)c12` [Compound 59], the concentration for half-maximal inhibition (IC50) came to 41 nM with p-eIF2α and 4 nM on PERK.
Consider `Cc1nc(N)c2c(-c3ccc(NC(=O)[C@H](O)c4cccc(F)c4)nc3C)cn(C)c2n1` [Compound 72], for which the values for the IC50 with p-eIF2α and at PERK were 105 nM and 17 nM, respectively.
The like results for `COc1cc(NC(=O)[C@H](O)c2cccc(F)c2)ccc1-c1cn(C)c2nc(C)nc(N)c12` [Compound 60] were, in that order, 1850 nM and 236 nM.
Taken in the same sequence, the figures for `Cc1nc(N)c2c(-c3ccc(NC(=O)[C@H](O)c4cccc(F)c4)cc3)cn(C)c2n1` [Compound 62] were 126 nM and 2 nM.
For `Cc1nc(N)c2c(-c3ccc(NC(=O)[C@H](O)c4cc(F)cc(C(F)(F)F)c4)cc3F)cn(C)c2n1` [Compound 51], the IC50 in the test with p-eIF2α was 62 nM; on PERK, 2.7 nM.
`Cc1cc(NC(=O)CCc2ccccc2)ccc1-c1cn(C)c2ncnc(N)c12` [Compound 15]: the IC50 in the test with p-eIF2α was determined as 1930 nM; on PERK, 126 nM.
As for `Cc1cc(NC(=O)[C@@H](O)c2cccc(F)c2)ccc1-c1cn(C)c2ncnc(N)c12` [Compound 12, (S)-N-(4-(4-amino-7-methyl-7H-pyrrolo[2,3-d]pyrimidin-5-yl)-3-methylphenyl) -2-(3-fluorophenyl) -2-hydroxyacetamide], the IC50 in the test on p-eIF2α was 57 nM; on PERK, 7.8 nM.
Taken in the same sequence, the figures for `CCc1cccc([C@@H](O)C(=O)Nc2ccc(-c3cn(C)c4nc(C)nc(N)c34)c(F)c2)c1` [Compound 50] were 25 nM and 0.9 nM.
Taken in the same sequence, the figures for `Cc1cc(NC(=O)C(C)(O)c2ccccc2)ccc1-c1cn(C)c2ncnc(N)c12` (stereo not drawn) [Compound 22] were 184 nM and 56 nM.
For `Cc1cc(NC(=O)Oc2ccccc2)ccc1-c1cn(C)c2ncnc(N)c12` [Compound 18], the IC50 was over 10000 nM in the test with p-eIF2α and 3980 nM at PERK.
The like results for `Cc1cc(NC(=O)C(F)(F)c2ccccc2)ccc1-c1cn(C)c2ncnc(N)c12` [Compound 17] were, in that order, 532 nM and 300 nM.
The like results for `Cc1cc(NC(=O)N(C)c2ccccc2)ccc1-c1cn(C)c2ncnc(N)c12` [Compound 20] were, in that order, 1750 nM and 108 nM.
Taken in the same sequence, the figures for `Cc1nc(N)c2c(-c3ccc(NC(=O)C(O)c4ccccc4C(F)(F)F)cc3C)cn(C)c2n1` (stereo not drawn) [Compound 27] were 2050 nM and 343 nM.
`CC1(COc2ccc3c(c2)ncn3-c2ccc3cccc(N4CCC(N)CC4)c3n2)COC1` [Crenolanib]: the results for the IC50 in the test with MOLM-13 (FLT3-ITD) and in the test on Kasumi-1 (FLT3wt) were 3 nM and 80 nM, respectively.
As to `Cc1nc(N)c2c(-c3ccc(NC(=O)[C@H](O)c4cccc(C(F)F)c4)cc3C)cn(C)c2n1` [Compound 34], the IC50 in the test with p-eIF2α is 21 nM; on PERK, 5.9 nM.
Taken in the same sequence, the figures for `Cc1nc(N)c2c(-c3ccc(NC(=O)[C@H](O)c4cccc(F)c4)cc3OC(F)(F)F)cn(C)c2n1` [Compound 61] were 435 nM and 23 nM.
The like results for `Cc1nc(N)c2c(-c3ccc(NC(=O)[C@H](O)c4cc(F)cc(Cl)c4)cc3C)cn(C)c2n1` [Compound 40] were, in that order, 8.5 nM and 2.9 nM.
Take `Cc1nc(N)c2c(-c3cc(F)c(NC(=O)C(O)c4cccc(F)c4)cc3F)cn(C)c2n1` (stereo not drawn) [Compound 71]: the 50% inhibitory concentration (IC50) with p-eIF2α came to 34 nM; at PERK it was 1 nM.
